Measured values taken from patent US9580437B2, “Triazolopyrimidine compounds and uses thereof” (Novartis AG, priority 2014, dated 2017).

Legend:
EED (1-441)-His protein = EED (1-441)-His protein (Homo sapiens (Human), UniProt O75530); assay: EED-H3K27Me3 peptide competition binding assay by AlphaScreen; conditions: read-out: (a) IC50 EED Alphascreen binding Qualified
Description: EED-H3K27Me3 peptide competition binding assay by AlphaScreen (α-screen)

[1] = target: wild type PRC2 (wtPRC2) complex (Homo sapiens (Human), UniProt O75530); assay: EED LC-MS assay; assay type: biochemical; conditions: read-out: (b) IC50 EED LC-MS Qualified
Experimental: A 6 μL solution of 3 μM of the peptide substrate H3K27Me0 (histone H3[21-44]-biotin) in reaction buffer was added to initiate each reaction. […] ELISA (H3K27 Methylation) Assay

Sequence of EED (1-441)-His protein (O75530 whole entry): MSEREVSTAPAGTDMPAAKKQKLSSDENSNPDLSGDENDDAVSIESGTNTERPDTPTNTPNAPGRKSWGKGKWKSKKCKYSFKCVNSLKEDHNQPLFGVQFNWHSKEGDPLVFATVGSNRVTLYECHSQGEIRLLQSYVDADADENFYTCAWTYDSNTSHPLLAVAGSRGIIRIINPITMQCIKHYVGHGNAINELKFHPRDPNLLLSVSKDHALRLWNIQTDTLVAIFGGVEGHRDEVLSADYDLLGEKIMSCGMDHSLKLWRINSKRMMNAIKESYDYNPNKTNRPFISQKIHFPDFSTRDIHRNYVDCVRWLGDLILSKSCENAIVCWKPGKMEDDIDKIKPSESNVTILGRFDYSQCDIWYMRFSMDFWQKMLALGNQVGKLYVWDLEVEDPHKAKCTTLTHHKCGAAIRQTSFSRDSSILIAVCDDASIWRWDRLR
Sequence of wild type PRC2 (wtPRC2) complex (O75530 whole entry): as above
Sequence of wild type PRC2 (wtPRC2) complex (Q15910 whole entry partner): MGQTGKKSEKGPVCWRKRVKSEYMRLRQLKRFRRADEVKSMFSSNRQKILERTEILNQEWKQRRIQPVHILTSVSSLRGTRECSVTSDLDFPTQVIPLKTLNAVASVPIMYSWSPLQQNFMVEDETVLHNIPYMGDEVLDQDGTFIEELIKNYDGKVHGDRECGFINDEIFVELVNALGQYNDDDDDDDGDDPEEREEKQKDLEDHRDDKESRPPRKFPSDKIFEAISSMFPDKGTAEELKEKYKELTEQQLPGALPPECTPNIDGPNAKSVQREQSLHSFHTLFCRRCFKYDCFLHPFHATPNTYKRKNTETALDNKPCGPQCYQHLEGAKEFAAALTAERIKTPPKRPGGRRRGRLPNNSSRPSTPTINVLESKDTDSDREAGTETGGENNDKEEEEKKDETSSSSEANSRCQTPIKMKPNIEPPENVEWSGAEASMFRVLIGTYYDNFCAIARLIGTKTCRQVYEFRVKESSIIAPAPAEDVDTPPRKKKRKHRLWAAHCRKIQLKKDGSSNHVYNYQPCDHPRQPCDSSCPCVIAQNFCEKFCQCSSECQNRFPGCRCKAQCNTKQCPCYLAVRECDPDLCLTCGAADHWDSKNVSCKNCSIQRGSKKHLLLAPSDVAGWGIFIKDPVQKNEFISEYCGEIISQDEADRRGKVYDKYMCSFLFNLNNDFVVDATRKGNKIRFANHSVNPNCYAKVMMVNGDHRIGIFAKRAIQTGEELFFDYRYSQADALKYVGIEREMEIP
Sequence of wild type PRC2 (wtPRC2) complex (Q15022 whole entry partner): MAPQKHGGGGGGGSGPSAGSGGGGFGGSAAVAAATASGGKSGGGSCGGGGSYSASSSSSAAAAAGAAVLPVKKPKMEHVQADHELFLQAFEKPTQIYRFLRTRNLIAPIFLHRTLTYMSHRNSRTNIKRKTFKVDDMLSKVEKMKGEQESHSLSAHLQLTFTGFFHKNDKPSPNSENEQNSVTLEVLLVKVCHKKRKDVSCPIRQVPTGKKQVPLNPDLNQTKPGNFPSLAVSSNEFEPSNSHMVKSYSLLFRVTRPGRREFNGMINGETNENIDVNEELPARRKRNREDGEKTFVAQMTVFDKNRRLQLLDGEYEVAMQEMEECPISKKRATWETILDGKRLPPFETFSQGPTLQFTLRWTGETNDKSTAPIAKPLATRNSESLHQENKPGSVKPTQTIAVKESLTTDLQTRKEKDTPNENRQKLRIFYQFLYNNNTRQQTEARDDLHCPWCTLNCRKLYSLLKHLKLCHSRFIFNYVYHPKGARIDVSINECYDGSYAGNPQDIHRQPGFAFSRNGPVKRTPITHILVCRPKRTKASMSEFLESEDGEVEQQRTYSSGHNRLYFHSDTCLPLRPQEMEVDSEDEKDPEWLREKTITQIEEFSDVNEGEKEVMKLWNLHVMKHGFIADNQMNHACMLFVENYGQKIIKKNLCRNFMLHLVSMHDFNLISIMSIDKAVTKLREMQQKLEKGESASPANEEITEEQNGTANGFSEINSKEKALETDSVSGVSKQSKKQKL

| Structure (SMILES) | IC50 (EED (1-441)-His protein) [nM] | IC50 [1] [nM] |
| --- | --- | --- |
| Cn1cc(-c2cnc(NCc3c(F)ccc4c3CCO4)n3cnnc23)c(C(F)(F)F)n1 [Example 170, N-((5-fluoro-2,3-dihydrobenzofuran-4-yl)methyl)-8-(1-methyl-3-(trifluoromethyl)-1H-pyrazol-4-yl)-[1,2,4]triazolo[4,3-c]pyrimidin-5-amine] | 10.7 | 12.1 |
| CS(=O)(=O)c1ccc(-c2cnc(NCc3c(F)ccc4c3CCO4)n3cnnc23)cn1 [Example 56, N-((5-fluoro-2,3-dihydrobenzofuran-4-yl)methyl)-8-(6-(methylsulfonyl)pyridin-3-yl)-[1,2,4]triazolo[4,3-c]pyrimidin-5-amine] | 19.6 | 30.9 |
| CS(=O)(=O)Nc1ccc(-c2cnc(NCc3cccc4c3CCO4)n3cnnc23)cc1F [Example 33, N-(4-(5-(((2,3-dihydrobenzofuran-4-yl)methyl)amino)-[1,2,4]triazolo[4,3-c]pyrimidin-8-yl)-2-fluorophenyl)methanesulfonamide] | 28.5 | 17.5 |
| CC(C)S(=O)(=O)c1ccc(-c2cnc(NCc3cccc4occc34)n3cnnc23)cc1 [Example 215, N-(benzofuran-4-ylmethyl)-8-(4-(isopropylsulfonyl)phenyl)-[1,2,4]triazolo[4,3-c]pyrimidin-5-amine] | 20.3 | 21.2 |
| CN1CCN(c2ccc(-c3cnc(NCc4cccc5occc45)n4cnnc34)cn2)CC1 [Example 211, N-(benzofuran-4-ylmethyl)-8-(6-(4-methylpiperazin-1-yl)pyridin-3-yl)-[1,2,4]triazolo[4,3-c]pyrimidin-5-amine] | 32.2 | 28.8 |
| O=C1CN(c2ccc(-c3cnc(NCc4cccc5c4CCO5)n4cnnc34)cn2)CCN1 [Example 104, 4-(5-(5-(((2,3-dihydrobenzofuran-4-yl)methyl)amino)-[1,2,4]triazolo[4,3-c]pyrimidin-8-yl)pyridin-2-yl)piperazin-2-one] | 9.6 | 12 |
| Cc1c(-c2cnc(NCc3cccc4c3CCO4)n3cnnc23)cnn1C [Example 64, N-((2,3-dihydrobenzofuran-4-yl)methyl)-8-(1,5-dimethyl-1H-pyrazol-4-yl)-[1,2,4]triazolo[4,3-c]pyrimidin-5-amine] | 12.4 | 41.3 |
| OCCn1cc(-c2cnc(NCc3cccc4c3CCO4)n3cnnc23)cn1 [Example 34, 2-(4-(5-(((2,3-dihydrobenzofuran-4-yl)methyl)amino)-[1,2,4]triazolo[4,3-c]pyrimidin-8-yl)-1H-pyrazol-1-yl)ethanol] | 37.5 | 49.4 |
| Cc1ccc(-c2cnc(NCc3c(F)ccc4c3CCO4)n3cnnc23)cn1 [Example 57, N-((5-fluoro-2,3-dihydrobenzofuran-4-yl)methyl)-8-(6-methylpyridin-3-yl)-[1,2,4]triazolo[4,3-c]pyrimidin-5-amine] | 8.4 | 18.6 |
| CN(C)C(=O)c1ccc(-c2cnc(NCc3c(F)ccc4c3CCO4)n3cnnc23)cc1 [Example 55, 4-(5-(((5-fluoro-2,3-dihydrobenzofuran-4-yl)methyl)amino)-[1,2,4]triazolo[4,3-c]pyrimidin-8-yl)-N,N-dimethylbenzamide] | 21.1 | 31.8 |
| CS(=O)(=O)c1ccc(-c2cnc(NCc3cccc4c3CCO4)n3cnnc23)cn1 [Example 28, N-((2,3-dihydrobenzofuran-4-yl)methyl)-8-(6-(methylsulfonyl)pyridin-3-yl)-[1,2,4]triazolo[4,3-c]pyrimidin-5-amine] | 11.1 | 27.6 |
| COCCn1nc(C)c(-c2cnc(NCc3cccc4c3CCO4)n3cnnc23)c1C [Example 66, N-((2,3-dihydrobenzofuran-4-yl)methyl)-8-(1-(2-methoxyethyl)-3,5-dimethyl-1H-pyrazol-4-yl)-[1,2,4]triazolo[4,3-c]pyrimidin-5-amine] | 15.6 | 44.7 |
| CN(C)C(=O)c1ccc(-c2cnc(NCc3cccc4c3CCO4)n3cnnc23)cc1 [Example 42, 4-(5-(((2,3-dihydrobenzofuran-4-yl)methyl)amino)-[1,2,4]triazolo[4,3-c]pyrimidin-8-yl)-N,N-dimethylbenzamide] | 52.5 | 86.1 |
| c1cc(CNc2ncc(-c3cncnc3)c3nncn23)c2c(c1)OCC2 [Example 51, N-((2,3-dihydrobenzofuran-4-yl)methyl)-8-(pyrimidin-5-yl)-[1,2,4]triazolo[4,3-c]pyrimidin-5-amine] | 136 | 346 |
| CC1Cc2c(CNc3ncc(-c4ccc(CN(C)C)cc4)c4nncn34)cccc2O1 (stereo not drawn) [Example 22, 8-(4-((dimethylamino)methyl)phenyl)-N-((2-methyl-2,3-dihydrobenzofuran-4-yl)methyl)-[1,2,4]triazolo[4,3-c]pyrimidin-5-amine] | 1980 | 1820 |
| c1cc(CNc2ncc(-c3ccncc3)c3nncn23)c2ccoc2c1 [Example 218, N-(benzofuran-4-ylmethyl)-8-(pyridin-4-yl)-[1,2,4]triazolo[4,3-c]pyrimidin-5-amine] | 38.6 | 26.3 |
| CN(C)c1cc(F)c(-c2cnc(NCc3cccc4c3CCO4)n3cnnc23)cn1 [Example 112, N-((2,3-dihydrobenzofuran-4-yl)methyl)-8-(6-(dimethylamino)-4-fluoropyridin-3-yl)-[1,2,4]triazolo[4,3-c]pyrimidin-5-amine] | 17.7 | 17.6 |

These reach a lower IC50 (EED (1-441)-His protein). Values come first.

| IC50 (EED (1-441)-His protein) [nM] | IC50 [1] [nM] | Structure (SMILES) |
| --- | --- | --- |
| 8.1 | 14.5 | O=S(=O)(c1ccc(-c2cnc(NCc3cccc4c3CCO4)n3cnnc23)cc1)C1CCNCC1 [Example 29, N-((2,3-dihydrobenzofuran-4-yl)methyl)-8-(4-(piperidin-4-ylsulfonyl)phenyl)-[1,2,4]triazolo[4,3-c]pyrimidin-5-amine] |
| 7.5 | 7.7 | Cc1cc(C2CC2)ncc1-c1cnc(NCc2c(F)ccc3c2CCO3)n2cnnc12 [Example 173, 8-(6-cyclopropyl-4-methylpyridin-3-yl)-N-((5-fluoro-2,3-dihydrobenzofuran-4-yl)methyl)-[1,2,4]triazolo[4,3-c]pyrimidin-5-amine] |
| 7.5 | 9.5 | Cn1cc(-c2cnc(NCc3c(F)ccc4c3CCO4)n3cnnc23)c(C(F)F)n1 [Example 200, 8-(3-(difluoromethyl)-1-methyl-1H-pyrazol-4-yl)-N-((5-fluoro-2,3-dihydrobenzofuran-4-yl)methyl)-[1,2,4]triazolo[4,3-c]pyrimidin-5-amine] |
| 6.6 | 7.1 | Cc1c(-c2cnc(NCc3c(F)ccc4c3CCO4)n3cnnc23)cnn1C [Example 172, 8-(1,5-dimethyl-1H-pyrazol-4-yl)-N-((5-fluoro-2,3-dihydrobenzofuran-4-yl)methyl)-[1,2,4]triazolo[4,3-c]pyrimidin-5-amine] |
| 5.9 | 11.3 | Fc1ccc2c(c1CNc1ncc(-c3ccc(C(F)(F)F)nc3)c3nncn13)CCO2 [Example 160, N-((5-fluoro-2,3-dihydrobenzofuran-4-yl)methyl)-8-(6-(trifluoromethyl)pyridin-3-yl)-[1,2,4]triazolo[4,3-c]pyrimidin-5-amine] |
| 5.3 | 24.8 | Cc1nn(C)cc1-c1cnc(NCc2cccc3c2CCO3)n2cnnc12 [Example 30, N-((2,3-dihydrobenzofuran-4-yl)methyl)-8-(1,3-dimethyl-1H-pyrazol-4-yl)-[1,2,4]triazolo[4,3-c]pyrimidin-5-amine] |
| 4.5 | 7 | Fc1ccc2c(c1CNc1ncc(-c3cnn(C4CC4)c3)c3nncn13)CCO2 [Example 150, 8-(1-cyclopropyl-1H-pyrazol-4-yl)-N-((5-fluoro-2,3-dihydrobenzofuran-4-yl)methyl)-[1,2,4]triazolo[4,3-c]pyrimidin-5-amine] |
| 4.5 | 6.6 | Cn1nccc1-c1cnc(NCc2c(F)ccc3c2CCO3)n2cnnc12 [Example 169, N-((5-fluoro-2,3-dihydrobenzofuran-4-yl)methyl)-8-(1-methyl-1H-pyrazol-5-yl)-[1,2,4]triazolo[4,3-c]pyrimidin-5-amine] |
| 4.1 | 7.9 | Cc1nc(OC(C)C)ncc1-c1cnc(NCc2c(F)ccc3c2CCO3)n2cnnc12 [Example 9, N-((5-fluoro-2,3-dihydrobenzofuran-4-yl)methyl)-8-(2-isopropoxy-4-methylpyrimidin-5-yl)-[1,2,4]triazolo[4,3-c]pyrimidin-5-amine] |
| 3.9 | 8.4 | O=C(c1ccc(-c2cnc(NCc3c(F)ccc4c3CCO4)n3cnnc23)cn1)N1CCCC1 [Example 129, (5-(5-(((5-fluoro-2,3-dihydrobenzofuran-4-yl)methyl)amino)-[1,2,4]triazolo[4,3-c]pyrimidin-8-yl)pyridin-2-yl)(pyrrolidin-1-yl)methanone] |
| 3.9 | 11.5 | Cc1cn(-c2cnc(NCc3c(F)ccc4c3CCO4)n3cnnc23)cn1 [Example 233, N-((5-fluoro-2,3-dihydrobenzofuran-4-yl)methyl)-8-(4-methyl-1H-imidazol-1-yl)-[1,2,4]triazolo[4,3-c]pyrimidin-5-amine] |
| 3.9 | 5 | CCOc1ncc(-c2cnc(NCc3c(F)ccc4c3CCO4)n3cnnc23)c(C)n1 [Example 226, 8-(2-ethoxy-4-methylpyrimidin-5-yl)-N-((5-fluoro-2,3-dihydrobenzofuran-4-yl)methyl)-[1,2,4]triazolo[4,3-c]pyrimidin-5-amine] |
| 3.5 | 6 | Cc1nn(C[C@@H](C)O)c(C)c1-c1cnc(NCc2c(F)ccc3c2CCO3)n2cnnc12 [Example 186, (2R)-1-(4-(5-(((5-fluoro-2,3-dihydrobenzofuran-4-yl)methyl)amino)-[1,2,4]triazolo[4,3-c]pyrimidin-8-yl)-3,5-dimethyl-1H-pyrazol-1-yl)propan-2-ol] |
